*1 amine or outer side, *2 acyl side, *3 side chain or, on linkers, in order; H or OH if unused. Where a SMILES comes first, the peptide text is derived from it. Side-chain parts run from the residue outwards. [ ]: non-standard residue; d: D form. The star is where a group is joined. C20 diacid = O=C(O)CCCCCCCCCCCCCCCCCCC(=O)*; γGlu = O=C(O)[C@H](CCC(=O)[*:2])N[*:1]; AEEA = NCCOCCOCC(=O)O; Aib = CC(C)(N)C(=O)O
Experiments:
[1] = target: T1, CFR1R receptor (Homo sapiens, UniProt P34998); assay: Activity at anti-target CFR1R receptor, cAMP assay in CRF1R-overexpression CHO-K1 cells; type: cell-based; conditions: 100% = Sauvagine at 100 nM; for EC50: cAMP
T1 construct: host or cells: CHO-K1 (clone 2)
T1 sequence (P34998 24-415): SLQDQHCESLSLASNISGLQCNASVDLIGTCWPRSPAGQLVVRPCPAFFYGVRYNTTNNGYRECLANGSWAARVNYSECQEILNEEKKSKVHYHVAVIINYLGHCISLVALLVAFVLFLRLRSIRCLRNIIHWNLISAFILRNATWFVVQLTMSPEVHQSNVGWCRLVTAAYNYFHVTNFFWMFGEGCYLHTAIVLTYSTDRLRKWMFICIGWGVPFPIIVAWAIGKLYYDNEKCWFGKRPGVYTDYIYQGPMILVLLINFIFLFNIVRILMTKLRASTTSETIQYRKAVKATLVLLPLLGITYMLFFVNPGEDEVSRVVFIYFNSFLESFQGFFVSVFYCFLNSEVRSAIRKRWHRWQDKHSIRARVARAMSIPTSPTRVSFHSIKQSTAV
Procedure, shortened: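 cAMP readout in CRF1R-overexpressing CHO-K1 cells (clone 2), run as for the TeloHAEC assay at 4000 cells/well final. Cells came from cryopreserved banks. Sauvagine at 100 nM defined 100% activation.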

[2] = target: T2, rat CRF2 a (Rattus norvegicus, UniProt P47866); assay: Activity at rat CRF2 a, cAMP assay in A7R5 rat aortic smooth muscle cells; type: cell-based; conditions: 0% HSA, 100% = Sauvagine at 100 nM
T2 construct: host or cells: A7R5 rat aortic smooth muscle cells
T2 sequence (P47866 27-431 isoform P47866-2 limits assumed): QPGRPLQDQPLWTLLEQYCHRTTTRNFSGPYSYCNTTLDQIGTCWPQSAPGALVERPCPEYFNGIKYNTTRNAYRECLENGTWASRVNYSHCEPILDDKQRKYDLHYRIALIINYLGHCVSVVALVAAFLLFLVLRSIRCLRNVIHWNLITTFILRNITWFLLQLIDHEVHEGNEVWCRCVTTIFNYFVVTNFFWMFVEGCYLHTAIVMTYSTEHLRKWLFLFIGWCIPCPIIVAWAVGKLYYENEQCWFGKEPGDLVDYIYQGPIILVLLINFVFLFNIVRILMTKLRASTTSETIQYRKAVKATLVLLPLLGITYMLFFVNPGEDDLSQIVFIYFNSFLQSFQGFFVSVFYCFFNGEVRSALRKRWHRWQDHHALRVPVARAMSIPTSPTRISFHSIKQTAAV
Procedure: The A7R5 rat aortic smooth muscle cell line used in this study was purchased from ATCC.
Cells were grown in a 10 cm dish at 37° C./5% CO2 in medium (DMEM/10% FBS) to near confluence. At that stage, cells were harvested, resuspended to 10 million/mL in culture medium and with 5% DMSO. 1 mL vial aliquots were slowly frozen to −80° C. in isopropanol and then transferred in liquid nitrogen for storage.
These vials were used to run the experiment following the procedure reported in the previous paragraph, except for the compound used in the control well to define the 100% activation (Sauvagine at 100 nM) and the cell density (final cell density: 5000 cells/well).

[3] = target: T3, human CRF2a receptor (Homo sapiens, UniProt Q13324); assay: Activity at human CRF2a receptor, cAMP functional assay in TeloHEAC cells; type: cell-based; conditions: TeloHEAC cells stably expressing human CRF2a receptor, relative to urocortin 2 (100 nM = 100%)
T3 construct: expressed in transfected cells; host or cells: TeloHEAC cells
T3 sequence (Q13324 1-411): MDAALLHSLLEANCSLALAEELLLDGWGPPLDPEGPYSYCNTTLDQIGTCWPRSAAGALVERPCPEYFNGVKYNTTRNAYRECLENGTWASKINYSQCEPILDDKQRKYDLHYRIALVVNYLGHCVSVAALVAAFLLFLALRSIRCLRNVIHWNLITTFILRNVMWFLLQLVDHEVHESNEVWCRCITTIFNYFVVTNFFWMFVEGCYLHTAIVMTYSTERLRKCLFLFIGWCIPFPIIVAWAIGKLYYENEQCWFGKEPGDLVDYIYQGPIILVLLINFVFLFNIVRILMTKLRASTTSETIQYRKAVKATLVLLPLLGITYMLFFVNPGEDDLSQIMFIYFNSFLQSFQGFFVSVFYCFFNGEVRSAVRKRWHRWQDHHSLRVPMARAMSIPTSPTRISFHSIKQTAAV
Procedure, shortened: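 TeloHEAC cells stably expressing human CRF2a (10000 cells/well, suspended in HBSS/20 mM HEPES with 2 mM IBMX) were exposed to compounds for 30 min at 37 °C. cAMP was read as the 665/620 nm fluorescence ratio after 1 h at room temperature. EC50 was derived relative to 100 nM urocortin 2, set as 100%.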

[4] = target: T4, CRF1R (corticotropin-releasing factor receptor 1), on the CRF1R-overexpression CHO-K1 cell line clone 2 (UniProt P34998 24-415, limits assumed); assay: cell-based or functional assay
T4 sequence (looked up): T1 sequence (P34998 24-415)

[5] = target: Rat CRF2 a (corticotropin-releasing factor receptor 2), on the A7R5 rat aortic smooth muscle cell line (rat, UniProt P47866 20-411); assay: cell-based or functional assay
Sequence of Rat CRF2 a (corticotropin-releasing factor receptor 2), on the A7R5 rat aortic smooth muscle cell line (P47866 20-411): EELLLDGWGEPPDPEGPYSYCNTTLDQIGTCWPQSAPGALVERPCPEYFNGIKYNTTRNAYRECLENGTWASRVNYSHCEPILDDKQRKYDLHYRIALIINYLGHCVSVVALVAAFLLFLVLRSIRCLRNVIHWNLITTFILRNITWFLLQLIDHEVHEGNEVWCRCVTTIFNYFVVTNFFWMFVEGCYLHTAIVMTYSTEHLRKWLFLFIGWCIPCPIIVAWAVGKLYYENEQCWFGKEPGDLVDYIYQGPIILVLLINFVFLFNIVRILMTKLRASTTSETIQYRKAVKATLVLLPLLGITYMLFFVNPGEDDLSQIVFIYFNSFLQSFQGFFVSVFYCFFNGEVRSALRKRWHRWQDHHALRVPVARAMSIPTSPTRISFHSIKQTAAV

In the case of `CC[C@H](C)[C@H](NC(C)=O)C(=O)N[C@H](C(=O)N[C@@H](CC(C)C)C(=O)N[C@@H](CO)C(=O)N[C@@H](CC(C)C)C(=O)N[C@@H](CC(=O)O)C(=O)N[C@@H](C(=O)N1CCC[C@H]1C(=O)N[C@H](C(=O)N[C@@H](CCCCN)C(=O)N[C@@H](CC(C)C)C(=O)N[C@@H](CCCCNC(=O)COCCOCCNC(=O)CC[C@H](NC(=O)CCCCCCCCCCCCCCCCCCC(=O)O)C(=O)O)C(=O)N[C@@H](CCCCN)C(=O)N[C@H](C(=O)N[C@@H](CC(C)C)C(=O)N[C@@H](CC(C)C)C(=O)N[C@@H](CCC(=O)O)C(=O)N[C@@H](CCC(N)=O)C(=O)N[C@@H](CCC(=O)O)C(=O)N[C@@H](CCCCN)C(=O)N[C@@H](CCC(N)=O)C(=O)N[C@@H](CCCCN)C(=O)N[C@@H](C)C(=O)N[C@@H](CCC(N)=O)C(=O)N[C@@H](CCCNC(=N)N)C(=O)N[C@@H](CCC(=O)O)C(=O)N[C@@H](CCC(N)=O)C(=O)N[C@@H](C)C(=O)N[C@@H](CCC(=O)O)C(=O)N[C@H](C(=O)N[C@@H](CC(N)=O)C(=O)NC(C)(C)C(=O)N[C@@H](CCC(N)=O)C(=O)N[C@H](C(=O)N[C@@H](CC(C)C)C(=O)N[C@@H](C)C(=O)N[C@@H](CCC(N)=O)C(=O)N[C@H](C(N)=O)C(C)C)[C@@H](C)CC)[C@@H](C)O)[C@@H](C)CC)[C@@H](C)CC)C(C)C)C(C)C` [compound 232] (Ac-IVLSLD[dV]PIKLK([AEEA-γGlu-C20 diacid])KILLEQEKQKAQREQAETN[Aib]QILAQV-NH2), the “Emax (% I)” value [1] is reported as 13 % I, the EC50 [1] is reported as > 250 nM and the EC50 [2] is reported as 0.4 nM. For the same molecule, the EC50 [3] was 0.12 nM.

For `CC[C@H](C)[C@H](NC(C)=O)C(=O)N[C@H](C(=O)N[C@@H](CC(C)C)C(=O)N[C@@H](CO)C(=O)N[C@@H](CC(C)C)C(=O)N[C@@H](CC(=O)O)C(=O)N[C@@H](C(=O)N1CCC[C@H]1C(=O)N[C@H](C(=O)N[C@@H](CCCCN)C(=O)N[C@@H](CC(C)C)C(=O)N[C@@H](CCCCNC(=O)CC[C@H](NC(=O)CC[C@H](NC(=O)CCCCCCCCCCCCCCCCCCC(=O)O)C(=O)O)C(=O)O)C(=O)N[C@@H](CCCCN)C(=O)N[C@H](C(=O)N[C@@H](CC(C)C)C(=O)N[C@@H](CC(C)C)C(=O)N[C@@H](CCC(=O)O)C(=O)N[C@@H](CCC(N)=O)C(=O)N[C@@H](CCC(=O)O)C(=O)N[C@@H](CCCCN)C(=O)N[C@@H](CCC(N)=O)C(=O)N[C@@H](CCCCN)C(=O)N[C@@H](CCCCN)C(=O)N[C@@H](CCC(N)=O)C(=O)N[C@@H](CCCNC(=N)N)C(=O)N[C@@H](CCC(=O)O)C(=O)N[C@@H](CCC(N)=O)C(=O)N[C@@H](C)C(=O)N[C@@H](CCC(=O)O)C(=O)N[C@H](C(=O)N[C@@H](CC(N)=O)C(=O)NC(C)(C)C(=O)N[C@@H](CCC(N)=O)C(=O)N[C@H](C(=O)N[C@@H](CC(C)C)C(=O)N[C@@H](C)C(=O)N[C@@H](CCC(N)=O)C(=O)N[C@H](C(N)=O)C(C)C)[C@@H](C)CC)[C@@H](C)O)[C@@H](C)CC)[C@@H](C)CC)C(C)C)C(C)C` [compound 243] (Ac-IVLSLD[dV]PIKLK([γGlu-γGlu-C20 diacid])KILLEQEKQKKQREQAETN[Aib]QILAQV-NH2), the “Emax (% I)” value [1] was 8 % I, the EC50 [1] was > 250 nM and the EC50 [2] was 0.09 nM. The EC50 [3] was 0.13 nM.

`CC[C@H](C)[C@H](NC(C)=O)C(=O)N[C@H](C(=O)N[C@@H](CC(C)C)C(=O)N[C@@H](CO)C(=O)N[C@@H](CC(C)C)C(=O)N[C@@H](CC(=O)O)C(=O)N[C@@H](C(=O)N1CCC[C@H]1C(=O)N[C@H](C(=O)N[C@@H](CCCCN)C(=O)N[C@@H](CC(C)C)C(=O)N[C@@H](CCCCNC(=O)COCCOCCNC(=O)COCCOCCNC(=O)CC[C@H](NC(=O)CCCCCCCCCCCCCCCCCCC(=O)O)C(=O)O)C(=O)N[C@@H](CCCCN)C(=O)N[C@H](C(=O)N[C@@H](CC(C)C)C(=O)N[C@@H](CC(C)C)C(=O)N[C@@H](CCC(=O)O)C(=O)N[C@@H](CCC(N)=O)C(=O)N[C@@H](CCC(=O)O)C(=O)N[C@@H](CCCCN)C(=O)N[C@@H](CCC(N)=O)C(=O)N[C@@H](CCCCN)C(=O)N[C@@H](CCCCN)C(=O)N[C@@H](CCC(N)=O)C(=O)N[C@@H](CCCNC(=N)N)C(=O)N[C@@H](CCC(=O)O)C(=O)N[C@@H](CCC(N)=O)C(=O)N[C@@H](C)C(=O)N[C@@H](CCC(=O)O)C(=O)N[C@H](C(=O)N[C@@H](CC(N)=O)C(=O)NC(C)(C)C(=O)N[C@@H](CCC(N)=O)C(=O)N[C@H](C(=O)N[C@@H](CC(C)C)C(=O)N[C@@H](C)C(=O)N[C@@H](CCC(N)=O)C(=O)N[C@H](C(N)=O)C(C)C)[C@@H](C)CC)[C@@H](C)O)[C@@H](C)CC)[C@@H](C)CC)C(C)C)C(C)C` [compound 238] (Ac-IVLSLD[dV]PIKLK([AEEA-AEEA-γGlu-C20 diacid])KILLEQEKQKKQREQAETN[Aib]QILAQV-NH2) was tested, and the “Emax (% I)” value [1] was 12 % I, the EC50 [1] was > 250 nM and the EC50 [2] was 0.09 nM. The EC50 [3] was 0.11 nM.

B1: peptide of SEQ ID NO: 244 (peptide)
peptide: Ac-IVLSLD[dV]PIKLK([γGlu-γGlu-C20 diacid])KILLEQEKQKAQREQAETN[Aib]QILAQV-NH2
SMILES: CC[C@H](C)[C@H](NC(C)=O)C(=O)N[C@H](C(=O)N[C@@H](CC(C)C)C(=O)N[C@@H](CO)C(=O)N[C@@H](CC(C)C)C(=O)N[C@@H](CC(=O)O)C(=O)N[C@@H](C(=O)N1CCC[C@H]1C(=O)N[C@H](C(=O)N[C@@H](CCCCN)C(=O)N[C@@H](CC(C)C)C(=O)N[C@@H](CCCCNC(=O)CC[C@H](NC(=O)CC[C@H](NC(=O)CCCCCCCCCCCCCCCCCCC(=O)O)C(=O)O)C(=O)O)C(=O)N[C@@H](CCCCN)C(=O)N[C@H](C(=O)N[C@@H](CC(C)C)C(=O)N[C@@H](CC(C)C)C(=O)N[C@@H](CCC(=O)O)C(=O)N[C@@H](CCC(N)=O)C(=O)N[C@@H](CCC(=O)O)C(=O)N[C@@H](CCCCN)C(=O)N[C@@H](CCC(N)=O)C(=O)N[C@@H](CCCCN)C(=O)N[C@@H](C)C(=O)N[C@@H](CCC(N)=O)C(=O)N[C@@H](CCCNC(=N)N)C(=O)N[C@@H](CCC(=O)O)C(=O)N[C@@H](CCC(N)=O)C(=O)N[C@@H](C)C(=O)N[C@@H](CCC(=O)O)C(=O)N[C@H](C(=O)N[C@@H](CC(N)=O)C(=O)NC(C)(C)C(=O)N[C@@H](CCC(N)=O)C(=O)N[C@H](C(=O)N[C@@H](CC(C)C)C(=O)N[C@@H](C)C(=O)N[C@@H](CCC(N)=O)C(=O)N[C@H](C(N)=O)C(C)C)[C@@H](C)CC)[C@@H](C)O)[C@@H](C)CC)[C@@H](C)CC)C(C)C)C(C)C
With B1 the “EC50 [nM] (cAMP, CRF1R-overexpression CHO-K1 cells)” value [4] was > 250 nM, the “Emax (% I) (cAMP, 100% = Sauvagine at 100 nM)” value [4] was 8 % I and the “EC50 [nM] 0% HSA (cAMP, A7R5 rat aortic smooth muscle cells)” value [5] was 1.77 nM.
